Results from patent US20030121068A1, “Vector encoding suicide and marker constructs” (priority 2001, published 2003).

Tests used:
[1] = tested on: NIH 3T3 and CEM cells; test: MTS cytotoxicity assay of transduced cells in 5-FC; assay type: cell-based, murine fibroblasts (NIH 3T3); human T cells (CEM); conditions: untransduced NIH 3T3 and CEM cells
Procedure: CD function was tested by cytotoxicity assays in which transduced cells are exposed to various concentrations of 5-FC in 96 well plates. Assays were initiated using 500 cells/well of NIH cells or 10,000 cells/well of CEM cells placed in culture with semi-log increasing concentrations of 5-FC for a period of 5 days. An MTS (Promega, Cell Titre 96; cat no. G5430, GI 11) colorimetric assay (based on the conversion of a tetrazolium dye to formazan) was utilized to quantitate the concentration of viable cells on day 5. The absorbance of UV light at a wavelength of 565 nm at a given concentration of 5-FC was used to calculate the LD50 using a μQuant plate reader (Bio Tek Instruments Inc.). The fusion constructs were tested alongside controls containing only the NGFR and the CD constructs.
We tested to determine if the CD construct remained functional in the fusion protein. Cells were incubated with varying concentrations of 5-FC in 96-well plates. After 5 days, MTS reagent was added as per manufacturers recommendations. The reaction involves a color change based on the number of viable cells as the tetrazolium dye changes to formazan. Absorption of UV light at 565 nm can then be used to assess viability (shown in FIG. 3 as percentage of viable cells). Untransduced cells are resistant to the effects of 5-FC. […]

[2] = Adverse effects of 5-FC injections in mice; assay type: in vivo, NOD/Scid mice; conditions: 400 mg/kg, day 5 through 19, control mice injected with saline
Procedure: In order to determine whether genetically engineered CEM cells could be effectively eradicated in vivo, NOD/Scid mice were utilized. After being exposed to 150 rads of radiation on day 1, four groups of mice were injected with saline (control) or 5×10^6 engineered cells on day 2. The remaining three groups included non-CD containing group (LNGFRSN), E. coli fusion construct containing group (LNGCDeSN) and the Saccharomyces fusion construct-containing group (LNGCDsSN). The genetically engineered cells were suspended in PBS at a 5×10^6 cells/0.5 ml and injected via the tail vein. Commencing day 5 though day 19, the mice were injected with 5-FC (Sigma, cat no. F-7129, lot no. 110K4012) at 400 mg/kg using a stock solution of 12.5 mg/ml, prepared in normal saline. After two weeks of 5-FC treatment, the mice were followed to assess mortality within each group. A Kaplan Meyer analysis was performed to determine the effect of 5-FC treatment for each group. The experiment was continued for 100 days after initiation.
As expected, control mice injected with saline survived the duration of the experiment. […] This group serves as a second control against mice injected with CD containing fusion constructs. […]

## Nc1nc(=O)[nH]cc1F [5-FC, 5-fluorocytosine]
[1]
  effect of 5-FC on untransduced cells: resistant
[2]
  adverse effects of 5-FC injections: No adverse effects
